Key:
[1] = UPAPS behavioral pain scoring and rescue analgesia after castration (Part II); assay type: in vivo, piglets; conditions: -1 h, 0 h and +3 h relative to castration; compared to C (saline)
Experimental: Behavior scoring was obtained in real-time by observing each piglet for 4-min continuously using Unesp-Botucatu pig acute pain scale (UPAPS). Each piglet was scored by one trained observer at the following timepoints: 1 h before castration (−1 h), immediately post-castration (0 h), and 3 h post-castration (+3 h, FIG. 3). The 4-min sampling time was obtained from the methodology previously validated. Treatments were masked, randomized, and applied to each piglet by a senior researcher. The Unesp-Botucatu UPAPS scale evaluates five behavioral items, with each item divided into four descriptive levels. A numerical score was designated from “0” to “3”, with a “0” representing normal behavior (free of pain) and “3” corresponding to pronounced behavioral deviation (severe pain). Therefore, for each timepoint, piglets may receive a score ranging from 0 (min) to 15 (max; Table 3). Total pain scores were then calculated for each piglet per timepoint. […] This is most referred to rescue analgesia in the literature; and was conducted for each behavioral assessment. Total counts were calculated for piglets identified as requiring or not requiring rescue analgesia by treatment and timepoint. […]

prostaglandin E2 (PGE2) = test: Serum PGE2 after castration of piglets (Example 3); assay type: in vivo; conditions: intra-inguinal lidocaine; any time point
Experimental: Pairwise comparisons of treatments at −24 h: P≥0.77. […] Pairwise comparisons of treatments at 24 h post-castration: P≥0.11.
The objective of this study was to evaluate the effects of intranasal flunixin and intra-inguinal lidocaine application on the castration associated inflammatory response in piglets, as described in Example 1.

cortisol = test: Serum cortisol after surgical or sham castration of piglets (Part I, physiological assessment); assay type: in vivo; conditions: 1 h post-castration, castrated piglets, compared to C (saline) and CL, FM 2.2 mg/kg intranasal, buffered lidocaine intra-inguinal
Experimental: A total of 197 Large White×Duroc cross male piglets from 35 litters were enrolled in the study (Table 1). Piglets were individually identified using ear tags (Allflex Global Piglet ear tags, Allflex Livestock Intelligence, Madison, WI), weighed and randomly allocated to one of eight treatment groups (FIG. 1).
Lidocaine was buffered by mixing 2 ml of 8.4% Sodium Bicarbonate to 20 ml of 2% lidocaine HCl injectable solution to achieve a pH of 6.8 (Lidocaine Hydrochloride, Covetrus, Dublin, Ohio, US). […] Piglets were held by both rear legs by one caretaker with the abdomen facing the individual administrating treatment. Buffered lidocaine was injected intra-inguinally (Picture 1) by a second caretaker using a ½ inch needle (Ideal® D3 20 Gauge, Neogen, Lansing, MI) inserted into a syringe (Prima Tech® 2 cc Bottle Mount Vaccinator, Prima Tech USA, Kenansville, NC). A total of 1.5 ml of buffered lidocaine per injection site was administered intramuscularly (IM) into each inguinal canal (left and right) at a 40-degree angle 5-7 cm from the scrotum and 2-3 cm from the abdominal wall. Piglets enrolled in the control treatment (C, S, CF, SF−T1: (C) Castration plus physiological saline (IM and IN; n=25); T2: (S) Sham plus physiological saline (IM and IN; n=25); T5: (CF) Castration plus flunixin (IN; n=25); T6: (SF) Sham plus flunixin (IN; n=24)) were handled in an identical manner and 1.5 ml of sterile saline was injected in the same two locations as described previously.
Immediately following intra-inguinal injection, piglets enrolled in the FM treatment groups were held in sternal recumbency by one individual and 2.2 mg/kg (Banamine®, Merck Animal Health, Madison, NJ, US) was administered in one nostril using was a MAD® nasal intranasal mucosal atomization device (Telefex Incorporated, Wayne, PA, US) attached to a Prima Tech® 0.5 cc bottle mount vaccinator. The same individual administered the treatment by gently holding the piglet's snout using their non-dominant hand to steady the head and administered the drug with the other hand. Piglets in the control group were handled in the same manner in an equivalent volume of 0.2 ml of sterile saline was administered as described above.
Castration was performed by one trained caretaker from the farm. Piglets were picked up, individually held by both hind legs with head down, and two vertical incisions were made through the skin of the scrotum over each testicle using a scalpel blade. Once the incisions were made, testicles were exposed, spermatic cords cut, and testicles were completely removed by traction. A sham castration was performed to mimic similar handling conditions in which piglets were picked up, held in the same manner, and had pressure applied to the scrotal area by the same individual responsible for castration.
Blood was collected 24 h prior to (−24 h), 1 h (1 h), and 24 h post castration (24 h, FIG. 2). Blood samples were collected using the technique described in other studies. The orbital sinus cavity was punctured using an Excel® disposable hypodermic needle 20G (Exel International, Quebec, Canada) and deposited into a 4 ml BD® red vacutainer serum tube (Med Vet International, Mettawa, IL). All tubes were maintained in a cooler and centrifuged (2,000×g for 15 min at 4° C.) no more than eight hours post-collection to separate serum. […]
Serum cortisol concentrations were quantified using a commercially available EIA kit (Arbor Assays DetectX Cortisol EIA Kit, Product #K003). […]

Compound: CCN(CC)CC(=O)Nc1c(C)cccc1C [Buffered lidocaine, lidocaine]
- total UPAPS scores [1]: no effect
- inflammation (PGE2) (prostaglandin E2 (PGE2)): did not mitigate inflammation
- cortisol concentrations (cortisol): no effect
- cortisol concentrations (cortisol; listed as CL): not different

Source: patent US20240285594A1, “COMPOSITIONS AND METHODS FOR TREATING PAIN IN ANIMALS” (North Carolina State University, priority 2023, published 2024)
